Legend:
[1] = test system: telomere length in HCC cell lines (Huh7 and Hep3B); assay: Telomere length (Southern blot, immunoFISH, Flow FISH, quantitative PCR); assay type: cell-based, human
Experimental: Volume of the hybridization buffer was adjusted to 100 μl per 10^5 cells. Next, each sample was cultured for 10 minutes in a water bath at 85° C. […] Total 15,000 to 20,000 nuclei were analyzed for the each separate culture. Telomere fluorescence intensity of the all nuclei at […] phase of the cell cycle was measured by using BD FACS Calibur flow cytometer (Becton Dickinson, Franklin Lakes, N.J., USA) in which CELLQUEST software is used. The established ImmunoFISH protocol (Plentz R R, et al., Hepatology. 2007; 45: 968-76) was used with slight modifications. The paraffin-embedded section was subjected to de-paraffinization using xylene, and then rehydrated using ethanol gradient. Antigen retrieval was carried out by boiling in 100 mmol/L sodium citrate (pH 6.0) for 10 minutes in a microwave. After permeation of proteinase K (15 μg/mL in PBS [pH 7.4]) for 20 minutes at 37° C., 8-oxo-dG-specific antibody (1:100, Abcam, Cambridge, Mass., USA; ab62623) was subjected to 1% BSA dilution in PBS 0.1% Triton X-100 and cultured overnight at room temperature. After washing, the slide was treated with Alexa 647 secondary antibody for 1 hour. […] After denaturation for 6 minutes at 90° C., the sample was hybridized for 2 hours at dark place. […] After washing, the slide was rinsed with PBS containing DAPI, and then sealed with a DAPI sealing agent (mounting medium) (Vector Laboratories, Burlingame, Calif., USA). Simultaneously, the inventors of the present invention carried out centromere staining as an internal control for telomere staining and 8-oxo-dG staining. […] For quantification of the telomere fluorescence intensity, centromere fluorescence intensity, and 8-oxo-dG fluorescence intensity, the same exposure time was employed. The telomere fluorescence level and 8-oxo-dG fluorescence level of tumor tissues were calculated by division of the fluorescence level in non-tumor tissues corresponding to 5 random fields. The image analysis was carried out by using Image-Pro plus 6.0 software (Media Cybernetics, Inc., Rockville, Md., USA). Telomere length was determined by using the non-radioactive chemical fluorescence TeloTAGGG telomere length assay (Roche; Cat. No. 12 209 136 001) according to the manual. Genomic DNA was separated from HCC cells using GeneJET Genomic DNA Purification Kit (Thermo Scientific; #K0721), and then 4 μg of the genomic DNA was digested for 16 hours at 37° C. with 20 units of […] digested DNA was subjected to 0.8% agarose gel electrophoresis, and then transferred to a positively charged nylon membrane using capillary transfer. The blotted DNA was hybridized for 16 hours at 42° C. with a digoxigenin (DIG)-labeled probe that is specific to the telomere repeat. After that, it was cultured for 30 minutes at room temperature with DIG-specific antibody conjugated to an alkaline phosphatase Based on quantitative PCR analysis using the genomic DNA extracted from cells, relative telomere repeat copy number (T) and single copy number (S) were determined, and the calculation was made like previous method in which T/S ratio is continuously modified (Cawthon R M. Telomere length measurement by a novel monochrome multiplex quantitative PCR method. Nucleic Acids Res. 2009; 37: e21).

[2] = test system: AKT phosphorylation in THLE-3 cells; assay: AKT phosphorylation, immunoblot assay; assay type: cell-based, human
Experimental: Medium was exchanged every day, and the aforementioned cells were cultured for 4 days in 300 μmol/L hydrogen peroxide (H2O2) (Sigma Aldrich; H1009). In several experiments, the cells were treated for 1 hour with 5 mmol/L N-acetylcysteine (NAC) (Sigma Aldrich; A7250), 25 μmol/L idelalisib (LC Laboratoties, Woburn, Mass., USA; I-7447), 25 μmol/L perifosine (LC Laboratoties, Woburn, Mass., USA; P-6522), or 30 μmol/L GSK3β inhibitor (GSK3β inhibitor XI) (Santa Cruz; sc-204770) (31) before adding H2O2. Furthermore, sterilized distilled water (pH 7.0) was used as a negative control (i.e., mock treatment).
Total 2×10^5 cells were boiled for 5 minutes in 2×SDS sample buffer (100 mmol/L TrisHCl [pH 6.8], 4% SDS, 0.2% bromophenol blue, 20% glycerol, and 200 mmol/L β-mercaptoethanol), and then subjected to SDS-PAGE and Western blotting. To detect the TERT, the cells were cultured in 2×SDS sample buffer for 15 minutes at 55° C. TERT-specific (1:300, Rockland Immunochemicals, Gilbertsville, Pa., USA; 600-401-252), AKT-specific (1:1000, Cell Signaling Technology; #9272), phospho-AKT-specific (1:2000, Cell Signaling Technology; #4060), GAPDH-specific (1:2000, Santa Cruz Biotechnology; sc-47724), or β-actin-specific (1:2000, Sigma-Aldrich, St. Louis, Mo., USA; A5441) antibody was diluted in 5% skim milk or bovine serum albumin with TBS-Tween 20, cultured overnight at 4° C., washed, and cultured with HRP-conjugated secondary antibody (1:1000, Abcam; ab131368, or ab131366). By using FUSION-SOLO imager (Vilber Lourmat, Marne La Vallee, France), a chemical fluorescence image was obtained.

Row | Structure (SMILES) | telomere length reduced by ([1]; 300 μmol/L H2O2-treated HCC cells plus idelalisib, compared to HCC cells treated with H2O2 only) | ROS-mediated increase in telomere length ([1]; H2O2-treated cells) | telomere length ([1]; HCC cells, no H2O2) | basal level AKT phosphorylation ([2]; THLE-3, idelalisib at a concentration of 25 μmol/L) | telomere length increased by ([1]; HCC cells treated with 300 μmol/L H2O2, compared to control HCC cells not exposed to H2O2) | AKT phosphorylation level ([2]; THLE-3 cells after H2O2 treatment)
1 | CC[C@H](Nc1ncnc2nc[nH]c12)c1nc2cccc(F)c2c(=O)n1-c1ccccc1 [idelalisib, 5-fluoro-3-phenyl-2-[(1S)-1-(7H-purin-6-ylamino)propyl]-4(3H)-quinazolinone] | 40-45% | almost completely inhibited | reduced | not reduced | – | –
2 | OO [H2O2, hydrogen peroxide] | – | – | – | – | 25%-30% | no change
